Measurements as given in patent US8247211B2, “Glycopeptide antibiotics” (American Cyanamid Company, priority 2001, dated 2012).
Values after ≈ are worked out from the molar mass of the structure shown.

Key:
Assay in all cases: In vitro antibacterial evaluation: minimum inhibitory concentration (MIC), broth dilution method
Assay type in all cases: cell-based
Staphylococcus sp. = system: Staphylococcus sp.
Summary of the method: (§1)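 MIC read as lowest drug level preventing visible growth. Organisms at 5×10^5 CFU/mL were exposed to a 64-0.06 μg/mL dilution series in Muller-Hinton II […] following NCCLS broth dilution standard M7-A2.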

Streptococcus sp. = settings: 18 hours at 35° C.
Summary of the method: as §1

Enterococcus sp. = settings: 18 hours at 35° C.
Summary of the method: as §1

Escherichia coli = settings: 18 hours at 35° C.
Summary of the method: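 NCCLS M7-A2 broth dilution with Mueller-Hinton II, testing 64-0.06 μg/mL antibiotic against 5×10^5 CFU/mL inocula. Test strains include recent methicillin-, penicillin- or vancomycin-resistant clinical isolates. MIC is the lowest concentration preventing growth.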

[1] = broth dilution, inoculum 5×10^5 CFU/mL

MIC Staphylococcus aureus (ATCC 29213) (Staphylococcus sp.; strain ATCC 29213): 4 µg/mL (≈ 2.65 µM)
MIC Staphylococcus aureus (GC 1131) (Staphylococcus sp.; strain GC 1131): 4 µg/mL (≈ 2.65 µM)
MIC Staphylococcus aureus (GC 3051) (Staphylococcus sp.; strain GC 3051): 4 µg/mL (≈ 2.65 µM)
MIC Staphylococcus aureus (GC 3053) (Staphylococcus sp.; strain GC 3053): 4 µg/mL (≈ 2.65 µM)
MIC Staphylococcus aureus (GC 4541) (Staphylococcus sp.; strain GC 4541): 4 µg/mL (≈ 2.65 µM)
MIC Staphylococcus aureus (GC 4542) (Staphylococcus sp.; strain GC 4542): 4 µg/mL (≈ 2.65 µM)
MIC Staphylococcus aureus-SMITH (GC 4543) (Staphylococcus sp.; strain GC 4543): 4 µg/mL (≈ 2.65 µM)
MIC Staphylococcus aureus (GC 4544) (Staphylococcus sp.; strain GC 4544): 4 µg/mL (≈ 2.65 µM)
MIC Staphylococcus aureus (GC 4545) (Staphylococcus sp.; strain GC 4545): 4 µg/mL (≈ 2.65 µM)
MIC Coagulase Negative Staphylococcus (GC 4547) (Staphylococcus sp.; strain GC 4547): 4 µg/mL (≈ 2.65 µM)
MIC Coagulase Negative Staphylococcus (GC 4548) (Staphylococcus sp.; strain GC 4548): 4 µg/mL (≈ 2.65 µM)
MIC Coagulase Negative Staphylococcus (GC 4549) (Staphylococcus sp.; strain GC 4549): 4 µg/mL (≈ 2.65 µM)
MIC Coagulase Negative Staphylococcus (GC 4551) (Staphylococcus sp.; strain GC 4551): 8 µg/mL (≈ 5.29 µM)
MIC Coagulase Negative Staphylococcus (GC 6257) (Staphylococcus sp.; strain GC 6257): 4 µg/mL (≈ 2.65 µM)
MIC Streptococcus agalactiae (GC 4564) (Streptococcus sp.; Streptococcus agalactiae (GC 4564)): 0.25 µg/mL (≈ 0.165 µM)
MIC Streptococcus pneumoniae (ATCC 6301) (Streptococcus sp.; Streptococcus pneumoniae (ATCC 6301)): 0.12 µg/mL (≈ 0.0794 µM)
MIC Streptococcus pneumoniae (GC 1894) (Streptococcus sp.; Streptococcus pneumoniae (GC 1894)): <0.06 µg/mL
MIC Streptococcus pneumoniae (GC 4565) (Streptococcus sp.; Streptococcus pneumoniae (GC 4565)): 0.12 µg/mL (≈ 0.0794 µM)
MIC Streptococcus pyogenes (GC 4563) (Streptococcus sp.; Streptococcus pyogenes (GC 4563)): 0.5 µg/mL (≈ 0.331 µM)
MIC Streptococcus agalactiae (GC 4564) (Streptococcus sp.; [1]): 0.25 µg/mL (≈ 0.165 µM)
MIC Streptococcus pneumoniae (ATCC 6301) (Streptococcus sp.; [1]): 0.12 µg/mL (≈ 0.0794 µM)
MIC Streptococcus pneumoniae (GC 1894) (Streptococcus sp.; [1]): <0.06 µg/mL
MIC Streptococcus pneumoniae (GC 4565) (Streptococcus sp.; [1]): 0.12 µg/mL (≈ 0.0794 µM)
MIC Streptococcus pyogenes (GC 4563) (Streptococcus sp.; [1]): 0.5 µg/mL (≈ 0.331 µM)
MIC Enterococcus avium (GC 4558) (Enterococcus sp.; Enterococcus avium (GC 4558)): 4 µg/mL (≈ 2.65 µM)
MIC Enterococcus faecalis (ATCC 29212) (Enterococcus sp.; Enterococcus faecalis (ATCC 29212)): 4 µg/mL (≈ 2.65 µM)
MIC Enterococcus faecalis (GC 2242) (Enterococcus sp.; Enterococcus faecalis (GC 2242)): 4 µg/mL (≈ 2.65 µM)
MIC Enterococcus faecalis (GC 2691) (Enterococcus sp.; Enterococcus faecalis (GC 2691)): 4 µg/mL (≈ 2.65 µM)
MIC Enterococcus faecalis (GC 3059) (Enterococcus sp.; Enterococcus faecalis (GC 3059)): 4 µg/mL (≈ 2.65 µM)
MIC Enterococcus faecalis (GC 4552) (Enterococcus sp.; Enterococcus faecalis (GC 4552)): 4 µg/mL (≈ 2.65 µM)
MIC Enterococcus faecalis (GC 4553) (Enterococcus sp.; Enterococcus faecalis (GC 4553)): 4 µg/mL (≈ 2.65 µM)
MIC Enterococcus faecalis (GC 4554) (Enterococcus sp.; Enterococcus faecalis (GC 4554)): 4 µg/mL (≈ 2.65 µM)
MIC Enterococcus faecalis (GC 6189) (Enterococcus sp.; Enterococcus faecalis (GC 6189)): 4 µg/mL (≈ 2.65 µM)
MIC Enterococcus faecium (GC 2243) (Enterococcus sp.; Enterococcus faecium (GC 2243)): 4 µg/mL (≈ 2.65 µM)
MIC Enterococcus faecium (GC 4556) (Enterococcus sp.; Enterococcus faecium (GC 4556)): 4 µg/mL (≈ 2.65 µM)
MIC Enterococcus faecium (GC 4557) (Enterococcus sp.; Enterococcus faecium (GC 4557)): 4 µg/mL (≈ 2.65 µM)
MIC Enterococcus avium (GC 4558) (Enterococcus sp.; [1]): 4 µg/mL (≈ 2.65 µM)
MIC Enterococcus faecalis (ATCC 29212) (Enterococcus sp.; [1]): 4 µg/mL (≈ 2.65 µM)
MIC Enterococcus faecalis (GC 2242) (Enterococcus sp.; [1]): 4 µg/mL (≈ 2.65 µM)
MIC Enterococcus faecalis (GC 2691) (Enterococcus sp.; [1]): 4 µg/mL (≈ 2.65 µM)
MIC Enterococcus faecalis (GC 3059) (Enterococcus sp.; [1]): 4 µg/mL (≈ 2.65 µM)
MIC Enterococcus faecalis (GC 4552) (Enterococcus sp.; [1]): 4 µg/mL (≈ 2.65 µM)
MIC Enterococcus faecalis (GC 4553) (Enterococcus sp.; [1]): 4 µg/mL (≈ 2.65 µM)
MIC Enterococcus faecalis (GC 4554) (Enterococcus sp.; [1]): 4 µg/mL (≈ 2.65 µM)
MIC Enterococcus faecalis (GC 6189) (Enterococcus sp.; [1]): 4 µg/mL (≈ 2.65 µM)
MIC Enterococcus faecium (GC 2243) (Enterococcus sp.; [1]): 4 µg/mL (≈ 2.65 µM)
MIC Enterococcus faecium (GC 4556) (Enterococcus sp.; [1]): 4 µg/mL (≈ 2.65 µM)
MIC Enterococcus faecium (GC 4557) (Enterococcus sp.; [1]): 4 µg/mL (≈ 2.65 µM)
MIC Escherichia coli (ATCC 25922) (Escherichia coli; Escherichia coli (ATCC 25922)): 64 µg/mL (≈ 42.3 µM)
MIC Escherichia coli (GC 4559) (Escherichia coli; Escherichia coli (GC 4559)): >64 µg/mL
MIC Escherichia coli (GC 4560) (Escherichia coli; Escherichia coli (GC 4560)): 8 µg/mL (≈ 5.29 µM)
SMILES: CC(C)CC(=O)OC1C(O)C(OC2C(CO)OC(Oc3ccc(CC4NC(=O)C(C(C)c5ccccc5)NC(=O)CNC(=O)C(CO)NC(=O)C(C(O)C5CNC(=N)N5C5OC(CO)C(O)C(O)C5O)NC(=O)C(C(O)C5CNC(=N)N5)NC4=O)cc3)C(O)C2O)OC2COC3(OC21)C1CC2CC(C1)CC3C2 (stereo not drawn) [Example 218, Cyclo[glycyl-β-methylphenylalanyl-O-[4-O-[4,6-O-(2-adamantylidene)-3-O-(3-methyl-butanoyl)-hexopyranosyl]hexopyranosyl]tyrosyl-3-(2-iminoimidazolidin-4-yl)-seryl-3-(3-hexopyranosyl-2-iminoimidazolidin-4-yl)serylseryl]]
MIC Staphylococcus haemolyticus (GC 4546) (Staphylococcus sp.; strain GC 4546): 4 µg/mL (≈ 2.65 µM)
